From patent US20160025711A1, “FLUORESCENT MARKERS AND METHODS FOR IMAGING DISEASES” (BOARD OF SUPERVISORS OF LOUISIANA STATE UNIVERSITY AND …, priority 2013, published 2016)
Where two headings read alike, the source gives them in different places.

Tests used:
[1] = pKa of secondary amine of reporter; assay type: physicochemical
[2] = Fluorescence spectra and quantum yield in pH 7.4, 0.1 M PBS; assay type: physicochemical; details: for fluorescence quantum yield Φ: quinine sulfate as standard
Source text: (§1) was used to examine possible quinone propionic acid quenchers and 1,8-naphthalimide reporters as well as linkers between the OeT quencher and the NI reporter, so as to ensure that quenching is thermodynamically feasible and efficient. In this equation, ED is the redox potential of the donor and EA that of the acceptor, ΔG00 is the energy of the first excited singlet state of the reporter, and e^2/εd is the Coulombic interaction energy of the ion pair, known to be 0.06 eV. The energy of the first excited singlet state of NI was measured to be 3.06 eV. […] The quinone was attached to the naphthalimide via an N-methylethanolamine linker through a carbamate to the amine of the naphthalimide ring. This linker imparts three properties on Q3NI: the linker is sufficiently short to allow for a high probability of electron transfer, the electron-withdrawing carbamate yields a favorable ΔGPeT, and the presence of the tertiary amide provides enhanced environmental stability. As a result, the fluorescence of Q3NI in pH 7.4, 0.1 M PBS is effectively quenched in comparison to that of the free NI reporter, as noted by their spectra in FIGS. 3B and 3C and respective fluorescence quantum yields Φ of 0.007 and 0.23 obtained using quinine sulfate as standard. […] The 33-fold fluorescence enhancement for NI versus Q3NI and very large Stokes shift of 116 nm (λmax abs=374 run, λmax em=490 nm) bode well for use of Q3NI as a multifunctional turn-on probe for sensing and imaging applications that utilize reductive stimuli capable of initiating removal of the reduced quinone group.

fixed samples = assay: Reporter retention in paraformaldehyde-fixed cell samples; assay type: cell-based; details: paraformaldehyde fixing; fixed samples stored for 10 months in the laboratory ambient
Source text: (§2) There was no indication of reporter in the nucleus, pointing to the lack of NQOI there; this is in contrast to previous work using immunohistochemical staining of penneabilized, fixed cells. The average cytosolic signal was 9 times higher in A549 cells versus NQOI-negative H596 cells, while it was 23 times higher in HT-29 cells compared to the NQOI-negative H596 cells. […] Accumulation of the basic (secondary amine pKa ˜11) NI occurred in acidic late endosomal and lysosomal vesicles, a beneficial outcome that leads to enhanced intracellular retention of NI. […] Collectively, there is great potential for use of our probe/reporter system for ex vivo quantitative analysis of excised tumor cells and long-term in vivo and in vitro imaging.

[3] = Voltammetric redox potentials and Rehm-Weller calculation of PeT energy; assay type: physicochemical
Source text: Embodiments of the present invention provide a probe (Q3NI) having fluorescence signal of a naphthalimide reporter quenched via oxidative electron transfer (OeT) by a covalently attached quinone propionic acid motif. See, e.g. FIG. 3A. The Q3NI provides the novel mechanism of reporter quenching by carefully tuning the electronic and optical properties of the quinone (Q3) OeT quencher and the naphthalimide reporter (NI), due to extant naphthalimide reporters that are quenched by reductive electron-transfer (ReT). The Rehm-Weller equation,
as §1

A549 [4] = assay: Trypan blue cell viability assay; assay type: cell-based, human; details: 2.0×10^−5 M Q3NI
Source text: (§3) Multiphoton (MP) microscopy imaging of cells and tissues may be more advantageous than traditional fluorescence microscopy, because use of the characteristic long-wavelength photons offers higher fluorophore and cellular photostability that provides extended imaging duration, less background signal from out-of-focus excitation and scattering events, and deeper penetration depth. In addition, MP imaging is ideal for direct observation of targets in their physiological environment and ex vivo thick-specimen sampling where 2D and 3D maps can be generated. […] As before, the signal appears somewhat heterogeneous throughout the cytosolic space of the HT-29 and A549 cells due to NI accumulation in acidic organelles. To ensure Q3NI and NI had little effect on cell health, cells were incubated in a 2.0×10^−5 M Q3NI solution in complete growth medium for 1 h and 1 day, and then cell viability was assessed with a trypan blue assay. After 1 h, cell viability for HT-29, A549, and H596 was 97.7%, 98.8%, and 100%, while it was 97.7%, 98.7%, and 98.4% after 24 h.

H596 [5] = assay: Trypan blue cell viability assay; assay type: cell-based, human; details: 2.0×10^−5 M Q3NI
Source text: as §3

HT-29 [6] = assay: Trypan blue cell viability assay; assay type: cell-based, human; details: 2.0×10^−5 M Q3NI
Source text: as §3

HT-29 cells = assay: Wide-field fluorescence imaging of fixed cells; assay type: cell-based, human; details: 10 min exposure
Source text: as §2

H596 cells = assay: Wide-field fluorescence imaging of fixed cells; assay type: cell-based, human; details: 10 min exposure
Source text: as §2

A549 cells [7] = assay: Wide-field fluorescence imaging of fixed cells; assay type: cell-based, human; details: 10 min exposure
Source text: as §2

A549 [8] = assay: Unaided-eye visualization of cultured cells with handheld 365 nm lamp; assay type: cell-based, human; details: 2×10^−5 M Q3NI, 10 min incubation; 5.72×10^6 total cells
Protocol: (§4) Embodiments of the present invention may allow for cancer cells to be rapidly visualized and differentiated. […] After a 10 min incubation period in a cell culture solution containing 2×10^−5 M Q3NI, it was possible to differentiate between the various substrate-cultured cells (4.84 cm^2) using only a handheld fluorescent lamp emitting at 365 nm and the unaided eye. […] The ability to visually determine the presence of hNQO1 in a small number of cells is due to the marked difference in fluorescence from the unquenched NI reporter (Φ=0.23) and quenched Q3NI probe (Φ=0.007) and the large Stokes shift of the NI reporter that results in fluorescence emission in the visible spectrum (400 nm to ˜600 nm). These outcomes point to use of the Q3NI probe sensor in the real-time, visible (without the aid of imaging equipment), and accurate determination of tumor/healthy tissue borders so as to allow for surgical resection of tumors with small foci.

H596 [9] = assay: as above; assay type: cell-based, human; details: 2×10^−5 M Q3NI, 10 min incubation; 3.96×10^6 total cells
Protocol: as §4

HT-29 [10] = assay: as above; assay type: cell-based, human; details: 2×10^−5 M Q3NI, 10 min incubation; 3.69×10^6 total cells
Protocol: as §4

[11] = target: human NAD(P)Rquinone oxidoreductase isozyme 1 (hNQO1) (Homo sapiens, UniProt P15559); assay: Michaelis-Menten kinetics of hNQO1 activation of the probe (NI reporter production); assay type: biochemical
Source text: In embodiments of the present in invention hNQO 1 reduces fluorescent probes cloked with a quinone moiety. In embodiments of the present invention, Q3NI is a probe capable of activation by hNQO1 to yield the NI reporter at a significant rate. Apparent kinetic parameters of Q3NI were obtained from Michaelis-Menten kinetic treatment of the time-dependent NI reporter production, namely the Michaelis constant (Km), maximum velocity (Vmax), catalytic constant (kcat), and substrate specificity (kcat/Km). The high rate of NI reporter production under in vitro conditions is readily apparent in FIG. 7; after 5 min, a fluorescent signal has been attained that is 22% of the maximum achievable, yielding 2.2×10^−7 M of released reporter.

A549 [12] = assay: Flow cytometry assay of Q3NI activation; assay type: cell-based, human; details: 10 min or 60 min incubation; λex=405 nm, λem=457/60 nm; 10,000 cells
Protocol: (§5) Flow cytometry assays were used to assess the applicability of the Q3NI probe to rapidly detect and quantify tumor cells containing hNQO1. See, FIG. 8. The probe was incubated in a suspension of HT-29, A549, H596, and H446 (a small-cell lung carcinoma known to be devoid of hNQO1 activity) cells for either 10 min or 60 min, and a flow cytometer was used to measure fluorescence (λex=405 nm, λem=457/60 nm) in 10,000 individual cells. […] Importantly, the sustained low fluorescence observed with the H446 cells (FIG. 8) points to the intracellular stability of Q3NI (lack of nonspecific activation).

H596 [13] = assay: Flow cytometry assay of Q3NI activation; assay type: cell-based, human; details: 10 min or 60 min incubation; λex=405 nm, λem=457/60 nm; 10,000 cells
Protocol: as §5

H446 [14] = assay: Flow cytometry assay of Q3NI activation; assay type: cell-based, human; details: 10 min or 60 min incubation; λex=405 nm, λem=457/60 nm; 10,000 cells
Protocol: as §5

HT-29 [15] = assay: Flow cytometry assay of Q3NI activation; assay type: cell-based, human; details: 10 min or 60 min incubation; λex=405 nm, λem=457/60 nm; 10,000 cells
Protocol: as §5

H596 [16] = assay: 2-photon microscopy of living cells; assay type: cell-based, human; details: 2.0×10^−5 M Q3NI in complete growth medium
Source text: as §3

H446 [17] = assay: 2-photon microscopy of living cells; assay type: cell-based, human; details: 2.0×10^−5 M Q3NI in complete growth medium
Source text: as §3

HT-29 cell line = assay: 2-photon microscopy of living cells; assay type: cell-based, human; details: 2.0×10^−5 M Q3NI in complete growth medium
Source text: as §3

A549 cells [18] = assay: 2-photon microscopy of living cells; assay type: cell-based, human; details: 2.0×10^−5 M Q3NI in complete growth medium
Source text: as §3

[19] = other dyes applied to cancer detection and localization; cited from earlier work

Sequence of human NAD(P)Rquinone oxidoreductase isozyme 1 (hNQO1) (P15559 whole entry): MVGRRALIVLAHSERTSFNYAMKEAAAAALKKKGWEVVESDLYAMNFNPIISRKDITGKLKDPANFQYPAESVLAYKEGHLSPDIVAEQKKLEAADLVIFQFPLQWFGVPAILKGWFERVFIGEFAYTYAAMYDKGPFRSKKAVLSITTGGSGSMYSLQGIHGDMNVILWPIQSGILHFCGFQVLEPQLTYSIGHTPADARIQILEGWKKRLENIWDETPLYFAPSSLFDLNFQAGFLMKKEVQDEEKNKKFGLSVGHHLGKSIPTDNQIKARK

Compound: CCCCN1C(=O)c2cccc3c(NC(=O)OCCNC)ccc(c23)C1=O [NI]
- secondary amine pKa [1]: ~11
- fluorescence enhancement for NI versus Q3NI ([2]; pH 7.4, 0.1 M PBS): 33 fold
- fluorescence quantum yield Φ ([2]; pH 7.4, 0.1 M PBS): 0.23
- Stokes shift ([2]; λmax abs=374, λmax em=490 nm): 116 nm
- efflux of reporter from cells / fluorescence retention (fixed samples): no apparent efflux
- energy of the first excited singlet state [3]: 3.06 eV
- ED, redox potential of the donor ([3]; voltammetric measurements): 1.74 V

Compound: CCCCN1C(=O)c2cccc3c(NC(=O)OCCN(C)C(=O)CC(C)(C)C4=C(C)C(=O)C(C)=C(C)C4=O)ccc(c23)C1=O [Q3NI]
- cell viability (A549 [4]; after 1 h): 98.8%
- cell viability (A549 [4]; after 24 h): 98.7%
- cell viability (H596 [5]; after 1 h): 100%
- cell viability (H596 [5]; after 24 h): 98.4%
- cell viability (HT-29 [6]; after 1 h): 97.7%
- cell viability (HT-29 [6]; after 24 h): 97.7%
- fluorescence quantum yield Φ ([2]; pH 7.4, 0.1 M PBS): 0.007
- average cytosolic signal versus NQO1-negative H596 cells (HT-29 cells): 23 times
- intracellular NI fluorescence signal (H596 cells): minimal signal
- average cytosolic signal versus NQO1-negative H596 cells (A549 cells [7]): 9 times
- appearance under 365 nm handheld lamp, unaided eye (A549 [8]): fluorescent blue
- appearance under 365 nm handheld lamp, unaided eye (H596 [9]): no apparent emission
- appearance under 365 nm handheld lamp, unaided eye (HT-29 [10]): fluorescent blue
- fluorescent signal as % of the maximum achievable ([11]; after 5 min, in vitro): 22%
- released reporter ([11]; after 5 min, in vitro): 220 nM
- catalytic constant (kcat) ([11]; apparent, FIG. 7): 0.019 ± 0.001 s⁻¹
- maximum velocity (Vmax) ([11]; apparent, FIG. 7): 0.037±0.002 μmol min^−1 mg·NQO^−1
- Km ([11]; apparent, from time-dependent NI reporter production, FIG. 7, read-out: Michaelis constant (Km)): 3.86 ± 0.79 µM
- flow cytometry fluorescence histogram (A549 [12]): high-intensity, unimodal distribution of signals
- flow cytometry fluorescence histogram (H596 [13]): minimal fluorescence
- flow cytometry fluorescence histogram (H446 [14]): minimal fluorescence
- flow cytometry fluorescence histogram (HT-29 [15]): high-intensity, unimodal distribution of signals
- fluorescence signal from NI (H596 [16]): minimal signal
- fluorescence signal from NI (H446 [17]): minimal signal
- cytosolic intensity compared to H446 cells (HT-29 cell line): 4.51×10^4 fold
- cytosolic intensity compared to H596 cells (HT-29 cell line): 15 fold
- average fluorescence signal compared to H596 cells (A549 cells [18]): 13 fold
- average fluorescence signal versus H446 cells (A549 cells [18]): 3.66×10^4 fold
- ΔGPeT, energy change for the OeT process ([3]; Rehm-Weller equation): −0.37 eV
- EA, redox potential of the acceptor (quinone propionic acid group) ([3]; voltammetric measurements): −1.01 V

Compound: CC1(C)C(/C=C/C=C/C=C/C=C2\N(CCCCS(=O)(=O)O)c3ccc4ccccc4c3C2(C)C)=[N+](CCCCS(=O)(=O)[O-])c2ccc3ccccc3c21 [indocyanine green]
- fluorescence quantum yield Φ [19]: 0.0028
